This note sets out measurements from patent US8003659B2, “Macrocyclic serine protease inhibitors” (Indenix Pharmaceuticals, Inc., priority 2008, dated 2011).

By CC50 is commonly meant the concentration giving 50% cytotoxicity. Read a high CC50 as lower toxicity to the cells. The term EC50 denotes the concentration that produces a half-maximal response. One may read the IC50 as the concentration needed to halve the response being measured. Low values mean higher potency, high ones lower potency.

Each structure is given as a SMILES string.

A short description of series [1]: Cytotoxicity evaluation (Cell Titer 96 AQueous One Solution Cell Proliferation Assay). The class given is cell-based. The settings on record: human; GS4.1 cells, cellular viability. Here is the method: For cytotoxicity evaluation, GS4.1 cells were treated with compounds as described above and cellular viability was monitored using the Cell Titer 96 AQueous One Solution Cell Proliferation Assay (Promega). CC50 values were determined from the % cytotoxicity versus concentration data with Tecan Magellan software as described above.

Series [2] relates to mutant protease R155Q. As to the kind of experiment: Resistance profile, mutant protease R155Q. The class given is biochemical, HCV. The settings on record: ratio of inhibitory activity against mutant enzyme over non-mutant enzyme. Here is the method:
(§1) General procedure: Measurement of the inhibitory effect of compounds on HCV protease activity was performed with the SensoLyte™ 620 HCV Protease Assay kit from AnaSpec, Inc. (San Jose, Calif.) under conditions described by the supplier using 1.2 nM HCV NS3-NS4A protease, which was obtained according to Taremi et al. (Protein Science, 1998, 7, 2143-2149). The compounds were tested at a variety of concentrations in assay buffer containing a final DMSO concentration of 5%. Reactions were allowed to proceed for 60 min at room temperature and fluorescence measurements were recorded with a Tecan Infinity Spectrofluorimeter. The IC50 values were determined from the percent inhibition versus concentration data using a sigmoidal non-linear regression analysis based on four parameters with Tecan Magellan software.
(§2) Compounds were evaluated against three mutant proteases R155Q, A156S, and D168A, as summarized in Table 8, wherein A represents a value smaller than 1, and B represents a value between 1 to 10, and C represents a value greater than 10. The fold of change in inhibitory activity was determined by measuring the ratio of the inhibitory activity of a compound against a mutant enzyme over the inhibitory activity of the same compound against non-mutant enzyme. The inhibitory activity was determined using the procedure as described in Example 31.

In series [3] the test system is Huh-7 cells containing HCV Con1 subgenomic replicon (GS4.1 cells). As to the kind of experiment: HCV Replicon Assay (NS4A ELISA). The class given is cell-based. To be noted: Hepatitis C virus, Huh-7, 72 hr, NS4A protein by ELISA. Summed up:
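GS4.1 cells (Huh-7 with HCV Con1 subgenomic replicon) given ten 2-fold compound dilutions (top 75 μM) or a single 15 μM dose in 0.5% DMSO for 72 h at 37 °C. NS4A measured by cell ELISA (A492); EC50 from four-parameter sigmoidal fit, single-dose results as % inhibition at 15 μM.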

In series [4] the target is T1, HCV NS3-NS4A protease (Hepatitis C virus genotype 1b, UniProt P26663).
T1 construct: made in house
As to the kind of experiment: HCV Protease Assay (SensoLyte 620 HCV Protease Assay kit). The settings on record: 1.2 nM HCV NS3-NS4A protease, 60 min at room temperature, 5% DMSO. In kind it is biochemical. In short, it runs like this:
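Protease at 1.2 nM, run with the SensoLyte 620 fluorogenic kit under supplier conditions, with compounds at several concentrations in buffer with 5% final DMSO. Reactions ran 60 min at room temperature before fluorescence reading; IC50 from four-parameter sigmoidal fit of percent inhibition.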

For series [5], the system named is genotype 1b replicon. As to the kind of experiment: Antiviral activity in a genotype 1b replicon assay. The class given is cell-based, HCV. To be noted: Hepatitis C virus; genotype 1b replicon assay as described in Example 32; read-out: EC50. Here is the method:
General procedure: Huh-7 cells containing HCV Con1 subgenomic replicon (GS4.1 cells) were grown in Dulbecco's Modified Eagle Medium (DMEM) supplemented with 10% fetal bovine serum (FBS), 2 mM L-glutamine, 110 mg/L sodium pyruvate, 1× non-essential amino acids, 100 U/mL penicillin-streptomycin, and 0.5 mg/mL G418 (Invitrogen). For dose-response testing, the cells were seeded in 96-well plates at 7.5×10^3 cells/well in a volume of 50 μL, and incubated at 37° C./5% CO2. Three hours after plating, 50 μL of ten 2-fold serial dilutions of compounds (highest concentration, 75 μM) were added, and cell cultures were incubated at 37° C./5% CO2 in the presence of 0.5% DMSO. Alternatively, compounds were tested at a single concentration of 15 μM. In all cases, Huh-7 cells lacking the HCV replicon served as negative control. The cells were incubated in the presence of compounds for 72 hr after which they were monitored for expression of the NS4A protein by enzyme-linked immunosorbent assay (ELISA). For this, the plates were then fixed for 1 min with acetone/methanol (1:1, v/v), washed twice with phosphate-buffered saline (PBS), 0.1% Tween 20, blocked for 1 hr at room temperature with TNE buffer containing 10% FBS and then incubated for 2 hr at 37° C. with the anti-NS4A mouse monoclonal antibody A-236 (ViroGen) diluted in the same buffer. After washing three times with PBS, 0.1% Tween 20, the cells were incubated 1 hr at 37° C. with anti-mouse immunoglobulin G-peroxidase conjugate in TNE, 10% FBS. After washing as described above, the reaction was developed with O-phenylenediamine (Zymed). The reaction was stopped after 30 min with 2 NH2SO4, and absorbance was read at 492 nm using Sunrise Tecan spectrophotometer. EC50 values were determined from the % inhibition versus concentration data using a sigmoidal non-linear regression analysis based on four parameters with Tecan Magellan software. When screening at a single concentration, the results were expressed as % inhibition at 15 μM.
Compounds were tested in a genotype 1b replicon assay as described in Example 32 and the results are summarized in Table 6, wherein A represents a value smaller than 1 μM, and B represents a value between 1 μM to 10 μM, C represents a value between 10 μM to 75 μM and D represents a value greater than 75 μM.

Series [6] has as its system mutant protease A156S. As to the kind of experiment: Resistance profile, mutant protease A156S. The class given is biochemical, HCV. The settings on record: ratio of inhibitory activity against mutant enzyme over non-mutant enzyme. Here is the method: as §1, §2

T1 sequence (P26663 1027-1208): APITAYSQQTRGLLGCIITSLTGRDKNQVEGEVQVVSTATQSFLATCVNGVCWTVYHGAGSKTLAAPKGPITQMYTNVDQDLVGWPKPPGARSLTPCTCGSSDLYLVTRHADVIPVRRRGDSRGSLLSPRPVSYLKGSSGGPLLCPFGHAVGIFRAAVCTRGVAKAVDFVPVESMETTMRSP

For `COc1ccc2c(O[C@H]3C[C@H]4C(=O)N(C)CCCC/C=C\[C@@H]5C[C@@]5(C(=O)NS(=O)(=O)C5CC5)NC(=O)N4C3)cc(-c3nc(C(C)C)cs3)nc2c1Cl` [Compound 62d, (Z)-(4R,6S,15S,17S)-[17-[8-chloro-7-methoxy-2-(4-isopropylthiazol-2-yl)quinolin-4-yloxy]-13-N-methyl-2,14-dioxo-1,3,13-triazatricyclo[13.3.0.0]octadec-7-en-4-yl]carbonyl(cyclopropyl)sulfonamide], the CC50 in series [1] is over 75 µM. In series [2], the “Fold-Change R155Q” value is listed as “A (A represents a value smaller than 1)”. Besides, the EC50 in series [3] and in series [5] was under 1 µM in each case. The IC50 in series [4] is under 1 µM. Also, in series [6], the “Fold-Change A156S” value is “A (A represents a value smaller than 1)”.
